In BindingDB's records for doi:10.1016/j.ejmech.2011.10.051 (University of The Mediterranean, 2012):

What was measured:
[1] = Inhibition of Met-mediated tumorigenesis in HGF-stimulated human GTL16 cells assessed as impairment in anchorage-independent growth by soft agar growth assay
[2] = Inhibition of TPR-fused MET-mediated mouse BA/F3 cell proliferation after 48 hrs by cell titre blue based spectrophotometry
[3] = Inhibition of Met-mediated scattering in HGF-stimulated […] cells pre-incubated overnight prior to HGF stimulation for 24 hrs measured after 24 to 48 hrs
[4] = Inhibition of Met-mediated tumorigenesis in HGF-stimulated human HepG2 cells assessed as impairment in anchorage-independent growth by soft agar growth assay

| SMILES | IC50 [1] | IC50 [2] | IC50 [3] | IC50 [4] |
| --- | --- | --- | --- | --- |
| O=C(Cc1cc(C(F)(F)F)cc(C(F)(F)F)c1)N[C@@H](Cc1ccccc1)C(=O)Nc1ccc(-c2cn3c(n2)sc2ccccc23)cc1 | 811 nM | 4 µM | 171 nM | 321 nM |
| O=C(Cc1cc(C(F)(F)F)cc(C(F)(F)F)c1)N[C@H](Cc1ccccc1)C(=O)Nc1ccc(-c2cn3c(n2)sc2ccccc23)cc1 | 1190 nM | – | 206 nM | 620 nM |
| Cc1[nH]c(/C=C2\C(=O)Nc3ccc(S(=O)(=O)N(C)c4cccc(Cl)c4)cc32)c(C)c1C(=O)N1CCN(C)CC1 [(3Z)-N-(3-CHLOROPHENYL)-3-({3,5-DIMETHYL-4-[(4-METHYLPIPERAZIN-1-YL)CARBONYL]-1H-PYRROL-2-YL}METHYLENE)-N-METHYL-2-OXOINDOLINE-5-SULFONAMIDE] | 228 nM | – | 152 nM | 1560 nM |
